The text below walks through data of patent publication US20170355705A1 (GlaxoSmithKline Intellectual Property (No.2) Limited, priority 2014, published 2017).

The assay has as its target T1, SIRT1 (Homo sapiens, UniProt Q96EB6).
T1 sequence (Q96EB6 1-747): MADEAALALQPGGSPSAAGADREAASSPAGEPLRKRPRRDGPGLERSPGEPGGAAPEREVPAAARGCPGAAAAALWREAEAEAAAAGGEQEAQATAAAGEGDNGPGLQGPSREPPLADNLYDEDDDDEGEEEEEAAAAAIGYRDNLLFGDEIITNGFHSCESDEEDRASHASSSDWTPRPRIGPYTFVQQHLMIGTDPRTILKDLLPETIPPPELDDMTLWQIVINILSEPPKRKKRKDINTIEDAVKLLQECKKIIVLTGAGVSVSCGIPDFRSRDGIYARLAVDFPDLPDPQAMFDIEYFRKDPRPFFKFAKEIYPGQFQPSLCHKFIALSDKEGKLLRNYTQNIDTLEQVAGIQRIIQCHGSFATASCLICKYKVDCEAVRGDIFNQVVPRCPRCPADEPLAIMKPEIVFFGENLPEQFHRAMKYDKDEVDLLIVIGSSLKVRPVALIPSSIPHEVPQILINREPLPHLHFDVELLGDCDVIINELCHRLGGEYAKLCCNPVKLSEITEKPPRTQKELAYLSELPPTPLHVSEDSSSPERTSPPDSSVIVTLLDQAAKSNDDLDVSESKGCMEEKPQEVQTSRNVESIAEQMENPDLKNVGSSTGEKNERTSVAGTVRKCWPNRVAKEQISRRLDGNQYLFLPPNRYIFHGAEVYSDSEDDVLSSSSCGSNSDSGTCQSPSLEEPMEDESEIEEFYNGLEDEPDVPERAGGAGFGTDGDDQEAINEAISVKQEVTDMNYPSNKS
In words: Trp mass spectrometry assay of SIRT1 activity (EC1.5, percent maximum activation). To be noted: Trp mass spectrometry assay; for TRP Activity (EC1.5): EC1.5 = concentration giving 150% activation of SIRT1; for TRP MAX RESP (percent maximum fold activation): percent maximum activation of SIRT1. The assay is classed as biochemical. The text has this:
Mass spectrometry based assays were used to identify modulators of SIRT1 activity. […] The peptide was labeled with the fluorophore 5TMR (excitation 540 nm/emission 580 nm) at the C-terminus. The sequence of the peptide substrate was based on p53 with several modifications. In addition, the methionine residue naturally present in the sequence was replaced with the norleucine because the methionine may be susceptible to oxidation during synthesis and purification.
The Trp mass spectrometry assay was conducted as follows. […] The SIRT1 protein was obtained by cloning the SirT1 gene into a T7-promoter containing vector, which was then expressed in BL21(DE3) bacterial cells and purified as described in further detail below. Test compound was added at varying concentrations to this reaction mixture and the resulting reactions were monitored. After the 25 minute incubation with SIRT1, 10 μL of 10% formic acid was added to stop the reaction. The resulting reactions were sealed and frozen for later mass spec analysis. The relative SIRT1 activity was then determined by measuring the amount of O-acetyl-ADP-ribose (OAADPR) formed (or, alternatively, the amount of deacetylated Trp peptide generated) by the NAD-dependent sirtuin deacetylation reaction in the presence of varying concentrations of the test compound versus control reactions lacking the test compound. The degree to which the test agent activated deacetylation by SIRT1 was expressed as EC1.5 (i.e., the concentration of compound required to increase SIRT1 activity by 50% over the control lacking test compound), and Percent Maximum Activation (i.e., the maximum activity relative to control (100%) obtained for the test compound).
This time point was the same as that used for test compounds and, within the linear range, the endpoint represents a change in velocity.
For the above assay, SIRT1 protein was expressed and purified as follows. The SirT1 gene was cloned into a T7-promoter containing vector and transformed into BL21(DE3). The protein was expressed by induction with 1 mM IPTG as an N-terminal His-tag fusion protein at 18° C. overnight and harvested at 30,000×g. Cells were lysed with lysozyme in lysis buffer (50 mM Tris-HCl, 2 mM Tris[2-carboxyethyl]phosphine (TCEP), 10 μM ZnCl2, 200 mM NaCl) and further treated with sonication for 10 min for complete lysis. The protein was purified over a Ni-NTA column (Amersham) and fractions containing pure protein were pooled, concentrated and run over a sizing column (Sephadex S200 26/60 global). The peak containing soluble protein was collected and run on an Ion-exchange column (MonoQ). Gradient elution (200 mM-500 mM NaCl) yielded pure protein. This protein was concentrated and dialyzed against dialysis buffer (20 mM Tris-HCl, 2 mM TCEP) overnight. The protein was aliquoted and frozen at −80° C. until further use.
“NT” means not tested; “ND” means not determinable.

As for `Cc1ccc(-c2nc3c(cc2C)N2CC[C@@H](C2)N3C(=O)Nc2ccccn2)cn1` [Example 8, (4S)-8-methyl-7-(6-methylpyridin-3-yl)-N-(pyridin-2-yl)-3,4-dihydro-1,4-methanopyrido[2,3-b][1,4]diazepine-5(2H)-carboxamide], the “TRP Activity (EC1.5)” value is “B (EC1.5 1-25 μM)” and the “TRP MAX RESP (percent maximum fold activation)” value is on record as “A (Fold activation ≧150%)”.

Regarding `Cc1ccc(-c2cc(C)c3c(n2)N(C(=O)Nc2ccccn2)[C@H]2CCN3C2)cn1` [Example 9, (4S)-9-methyl-7-(6-methylpyridin-3-yl)-N-(pyridin-2-yl)-3,4-dihydro-1,4-methanopyrido[2,3-b][1,4]diazepine-5(2H)-carboxamide], the “TRP Activity (EC1.5)” value is “B (EC1.5 1-25 μM)” and the “TRP MAX RESP (percent maximum fold activation)” value is “A (Fold activation ≧150%)”.

`Cc1ccc(-c2nc3c(cc2C#N)N2CC[C@@H](C2)N3C(=O)Nc2cccnc2)cn1` [Example 10, (4S)-8-cyano-7-(6-methylpyridin-3-yl)-N-(pyridin-3-yl)-3,4-dihydro-1,4-methanopyrido[2,3-b][1,4]diazepine-5(2H)-carboxamide]: the “TRP Activity (EC1.5)” value is recorded as “B (EC1.5 1-25 μM)” and the “TRP MAX RESP (percent maximum fold activation)” value is recorded as “A (Fold activation ≧150%)”.

Regarding `Cc1cc(-c2nc3c(cc2Br)N2CC[C@@H](C2)N3C(=O)Nc2ccccn2)ccn1` [Example 11, (4S)-8-bromo-7-(2-methylpyridin-4-yl)-N-(pyridin-2-yl)-3,4-dihydro-1,4-methanopyrido[2,3-b][1,4]diazepine-5(2H)-carboxamide], the “TRP Activity (EC1.5)” value is recorded as “B (EC1.5 1-25 μM)” and the “TRP MAX RESP (percent maximum fold activation)” value is on record as “A (Fold activation ≧150%)”.

With `Cc1cc(-c2nc3c(cc2Br)N2CC[C@@H](C2)N3C(=O)Nc2cccnc2)ccn1` [Example 12, (4S)-8-bromo-7-(2-methylpyridin-4-yl)-N-(pyridin-3-yl)-3,4-dihydro-1,4-methanopyrido[2,3-b][1,4]diazepine-5(2H)-carboxamide], the “TRP Activity (EC1.5)” value was “B (EC1.5 1-25 μM)” and the “TRP MAX RESP (percent maximum fold activation)” value is “A (Fold activation ≧150%)”.

As for `Cc1ccc(-c2cc(C)c3c(n2)N(C(=O)Nc2cccnc2)[C@H]2CCN3C2)cn1` [Example 13, (4S)-9-methyl-7-(6-methylpyridin-3-yl)-N-(pyridin-3-yl)-3,4-dihydro-1,4-methanopyrido[2,3-b][1,4]diazepine-5(2H)-carboxamide], the “TRP Activity (EC1.5)” value was “B (EC1.5 1-25 μM)” and the “TRP MAX RESP (percent maximum fold activation)” value was “A (Fold activation ≧150%)”.

With `Cc1cc(-c2nc3c(cc2F)N2CC[C@@H](C2)N3C(=O)Nc2cccnc2)ccn1` [Example 14, (4S)-8-fluoro-7-(2-methylpyridin-4-yl)-N-(pyridin-3-yl)-3,4-dihydro-1,4-methanopyrido[2,3-b][1,4]diazepine-5(2H)-carboxamide], the “TRP Activity (EC1.5)” value is “B (EC1.5 1-25 μM)” and the “TRP MAX RESP (percent maximum fold activation)” value is given as “A (Fold activation ≧150%)”.

Turning to `Cc1cc(-c2nc3c(cc2F)N2CC[C@@H](C2)N3C(=O)Nc2ccccn2)ccn1` [Example 15, (4S)-8-fluoro-7-(2-methylpyridin-4-yl)-N-(pyridin-2-yl)-3,4-dihydro-1,4-methanopyrido[2,3-b][1,4]diazepine-5(2H)-carboxamide], the “TRP Activity (EC1.5)” value is “A (EC1.5<1 μM)” and the “TRP MAX RESP (percent maximum fold activation)” value was “A (Fold activation ≧150%)”.

In the case of `Cc1ccc(-c2nc3c(cc2Cl)N2CC[C@@H](C2)N3C(=O)Nc2ccccn2)cn1` [Example 16, (4S)-8-chloro-7-(6-methylpyridin-3-yl)-N-(pyridin-2-yl)-3,4-dihydro-1,4-methanopyrido[2,3-b][1,4]diazepine-5(2H)-carboxamide], the “TRP Activity (EC1.5)” value is “B (EC1.5 1-25 μM)” and the “TRP MAX RESP (percent maximum fold activation)” value was “A (Fold activation ≧150%)”.

On to `Cc1cc(-c2nc3c(cc2C)N2CC[C@@H](C2)N3C(=O)Nc2cccnc2)ccn1` [Example 17, (4S)-8-methyl-7-(2-methylpyridin-4-yl)-N-(pyridin-3-yl)-3,4-dihydro-1,4-methano pyrido[2,3-b][1,4]diazepine-5(2H)-carboxamide], for which the “TRP Activity (EC1.5)” value is “B (EC1.5 1-25 μM)” and the “TRP MAX RESP (percent maximum fold activation)” value is “A (Fold activation ≧150%)”.

As for `O=C(Nc1ccnc(O[C@@H]2CCOC2)n1)N1c2nc(-c3cccc(C(F)(F)F)c3)c(Cl)cc2N2CC[C@H]1C2` [Example 18, (4S)-8-chloro-N-(2-(((R)-tetrahydrofuran-3-yl)oxy)pyrimidin-4-yl)-7-(3-(trifluoromethyl)phenyl)-3,4-dihydro-1,4-methanopyrido[2,3-b][1,4]diazepine-5(2H)-carboxamide], the “TRP Activity (EC1.5)” value is given as “B (EC1.5 1-25 μM)” and the “TRP MAX RESP (percent maximum fold activation)” value is “A (Fold activation ≧150%)”.

For `O=C(Nc1ccnc(O[C@H]2CCOC2)n1)N1c2nc(-c3cccc(C(F)(F)F)c3)c(Cl)cc2N2CC[C@H]1C2` [Example 19, (4S)-8-chloro-N-(2-(((S)-tetrahydrofuran-3-yl)oxy)pyrimidin-4-yl)-7-(3-(trifluoromethyl)phenyl)-3,4-dihydro-1,4-methanopyrido[2,3-b][1,4]diazepine-5(2H)-carboxamide], the “TRP Activity (EC1.5)” value is given as “A (EC1.5<1 μM)” and the “TRP MAX RESP (percent maximum fold activation)” value is recorded as “A (Fold activation ≧150%)”.

As for `Cc1cc(-c2nc3c(cc2Cl)N2CC[C@@H](C2)N3C(=O)Nc2ccnc(O[C@H]3CCOC3)n2)ccn1` [Example 20, (4S)-8-chloro-7-(2-methylpyridin-4-yl)-N-(2-(((S)-tetrahydrofuran-3-yl)oxy)pyrimidin-4-yl)-3,4-dihydro-1,4-methanopyrido[2,3-b][1,4]diazepine-5(2H)-carboxamide], the “TRP Activity (EC1.5)” value was “C (EC1.5>25 μM)” and the “TRP MAX RESP (percent maximum fold activation)” value is given as “A (Fold activation ≧150%)”.

For `Cc1cc(-c2nc3c(cc2Cl)N2CC[C@@H](C2)N3C(=O)Nc2ccnc(OC3CCOCC3)n2)ccn1` [Example 21, (4S)-8-chloro-7-(2-methylpyridin-4-yl)-N-(2-((tetrahydro-2H-pyran-4-yl)oxy)pyrimidin-4-yl)-3,4-dihydro-1,4-methanopyrido[2,3-b][1,4]diazepine-5(2H)-carboxamide], the “TRP Activity (EC1.5)” value is “C (EC1.5>25 μM)” and the “TRP MAX RESP (percent maximum fold activation)” value was “B (Fold Activation <150%)”.

Consider `Cc1cc(-c2nc3c(cc2Cl)N2CC[C@@H](C2)N3C(=O)Nc2ccnc(O[C@@H]3CCOC3)n2)ccn1` [Example 22, (4S)-8-chloro-7-(2-methylpyridin-4-yl)-N-(2-(((R)-tetrahydrofuran-3-yl)oxy)pyrimidin-4-yl)-3,4-dihydro-1,4-methanopyrido[2,3-b][1,4]diazepine-5(2H)-carboxamide], for which the “TRP Activity (EC1.5)” value is given as “C (EC1.5>25 μM)” and the “TRP MAX RESP (percent maximum fold activation)” value is “B (Fold Activation <150%)”.
